Data reported in patent US10023565B2, “N,N′ substituted piperidinamine compounds, and preparation method and usage thereof” (Institute of Pharmacology and Toxicology Academy of …, priority 2013, dated 2018).

Key:
Assay in all cases: Antitumor bioactivity evaluation, breast cancer cells (ATPlite)
[1] = test system: BT/Lap^R1.0; format: cell-based, human; details: Homo sapiens; test sample 5 μM, 72 hours; read-out: Inhibitory Rate % BT/Lap^R1.0
Protocol: (§1) Antitumor bioactivity evaluation of the compounds of Examples according to the method described below
(§2) Cells plating: a 100 mm culture dish with overgrown adherent cells was digested with 1 ml 0.25% trypsin (GIBCO) at 37° C. for 5 min, and the reaction was terminated with 2 ml culture medium (containing 10% FBS, GIBCO). The cells were scattered and collected, after counting, diluted to 1×10^5 cells/ml, and seeded into a 96-well plate at 50 μl/well, 5000 cells/well, excluding the peripheral circle of wells in which no cell was added, but PBS was added, 60 wells in total, and then incubated at 37° C. for 24 hours for adhering.
(§3) Addition of the compound and lapatinib: the test sample was diluted to a final concentration of 5 μM, and the culture medium with the corresponding compound solvent concentration was filled in the control well, the compound solvent concentration was kept consistent in each well, 5 parellel wells were set for each concentration, 25 μl each well, 25 μl culture medium (in combined group, 25 μl lapatinib was added till a final concentration of 1 μM) supplemented, followed by incubation at 37° C. for 72 hours.
(§4) Test after incubation at 37° C. for 72 hours: 50 μL of ATPlite kit substrate solution was added in each well, and vibrated for 3 min, followed by placing aside in darkness for 10 min, and then supernatant 100 μl/well was taken and placed on aluminescence test plate; the luminescence test plate that has been fully incubated was placed in a luminescence test instrument, to read luminescence value.
(§5) 1. Cell survival rate (%)=Experimental group RLU/control group RLU×100%. The experimental data were subjected to data analysis and processing by utilizing GraphPad software.

[2] = test system: MDA-MB-361; format: cell-based; details: Homo sapiens, test sample 5 μM, 72 hours, read-out: Inhibitory Rate % MDA-MB-361
Protocol: as §1, §2, §3, §4, §5

[3] = test system: SK/Lap^R1.0; format: cell-based; details: Homo sapiens; test sample 5 μM, 72 hours; read-out: Inhibitory Rate % SKLap^R1.0
Protocol: as §1, §2, §3, §4, §5

[4] = test system: MDA-MB-453; format: cell-based; details: Homo sapiens, test sample 5 μM, 72 hours, read-out: Inhibitory Rate % MDA-MB-453
Protocol: as §1, §2, §3, §4, §5

[5] = test system: SK-BR3; format: cell-based; details: Homo sapiens, SK-BR-3; test sample 5 μM, 72 hours; read-out: Inhibitory Rate % SK-BR3
Protocol: as §1, §2, §3, §4, §5

[6] = test system: BT474; format: cell-based; details: Homo sapiens, BT-474; test sample 5 μM, 72 hours; read-out: Inhibitory Rate % BT474
Protocol: as §1, §2, §3, §4, §5

Compound	inhibition at 5 µM [1] [%]	inhibition at 5 µM [2] [%]	inhibition at 5 µM [3] [%]	inhibition at 5 µM [4] [%]	inhibition at 5 µM [5] [%]	inhibition at 5 µM [6] [%]
Cc1ccc(CN(C)C2CCN(Cc3cnc(Cl)s3)CC2)cc1 [Example 22, N-methyl-N-(4-methylbenzyl)-N-{[1-(2-chlorothiazol-5-yl)methyl]piperidin-4-yl}amine]	16	10.9	8.4	29.6	26.2	14.2
COc1cc(N2CCC(N(C)Cc3c(F)cccc3Cl)CC2)ncn1 [Example 64, N-methyl-N-(2-fluoro-6-chlorobenzyl)-N-[1-(6-methoxypyrimidin-4-yl)piperidin-4-yl] amine]	48.5	39.6	16.6	59.4	15.5	45.9
CSc1ncc(CN2CCC(N(C)Cc3ccc(Cl)cc3Cl)CC2)s1 [Example 33, N-methyl-N-(2,4-dichlorobenzyl)-N-{1-[(2-methylthiothiazol-5-yl)methyl]piperidin-4-yl}amine]	66.3	36.3	40.4	72.4	37.8	70
COc1cc(N2CCC(N(C)Cc3c(Cl)cccc3Cl)CC2)ncn1 [Example 60, N-methyl-N-(2,6-dichlorobenzyl)-N-[1-(6-methoxypyrimidin-4-yl)piperidin-4-yl]amine]	52.5	30.8	19.2	65.1	22.8	53.6
COc1cc(N2CCC(N(C)Cc3cccc(F)c3)CC2)ncn1 [Example 68, N-methyl-N-(3-fluorobenzyl)-N-[1-(6-methoxypyrimidin-4-yl)piperidin-4-yl]amine]	5.6	8.4	30.1	9.4	5.2	5.4
CN(Cc1cccc(Cl)c1)C1CCN(Cc2cnc(Cl)s2)CC1 [Example 18, N-methyl-N-(3-chlorobenzyl)-N-{1-[(2-chlorothiazol-5-yl)methyl]piperidin-4-yl}amine]	8.4	9.7	8.5	12.6	15.5	7.1
CSc1ncc(CN2CCC(N(C)Cc3c(F)cccc3Cl)CC2)s1 [Example 31, N-methyl-N-(2-fluoro-6-chlorobenzyl)-N-{1-[(2-methylthiothiazol-5-yl)methyl]piperidin-4-yl}amine]	59.9	47.2	4.5	65.3	9.2	49.5
Clc1cccc(CNC2CCN(Cc3cnc(Cl)s3)CC2)c1 [Example 13, N-(3-chlorobenzyl)-N-{1-[(2-chlorothiazol-5-yl)methyl]piperidin-4-yl}amine]	7.2	3.2	4.1	2.4	17.9	3.8
CSc1ncc(CN2CCC(N(C)Cc3cccc(Cl)c3)CC2)s1 [Example 28, N-methyl-N-(3-chlorobenzyl)-N-{1-[(2-methylthiothiazol-5-yl)methyl]piperidin-4-yl}amine]	36.1	31.1	7.3	62.3	26.7	44.9
Cc1ccccc1CN(C)C1CCN(Cc2cnc(Cl)s2)CC1 [Example 21, N-methyl-N-(2-methylbenzyl)-N-{[1-(2-chlorothiazol-5-yl)methyl]piperidin-4-yl}amine]	4	4.4	5.1	3.5	9.7	1.5
